The source of these data is US5760036A, “Aminediol protease inhibitors” (E. R. Squibb & Sons, Inc., priority 1995, dated 1998).

Each structure is given as a SMILES string.

One test has as its target T1, HIV protease (Human immunodeficiency virus type 1 group M subtype B, UniProt P04585).
T1 construct: and purified protease
As to the kind of experiment: HIV Protease Assay. It is filed as biochemical. Conditions: 10 μM inhibitor, 4% DMSO, 450 μM substrate, pH 5.5, 30 minutes at 37° C., RP-HPLC. How it is done:
An HIV protease standard assay was performed in a 60 μl reaction medium containing 50 mM sodium acetate, pH 5.5, 100 μg/ml bovine serum albumen,450 μM substrate (H2 N-Val-Ser-Gln-Asn-(β-naphthyl-alanine)-Pro-Val-Ile-OH), and purified protease. The reaction medium was incubated for 30 minutes at 37° C., quenched by the addition of 140 μl 5% H3 PO4, then analyzed by reverse phase HPLC using UV220 detection. In a typical control assay, 7% of the substrate was hydrolyzed. Aminediol inhibitors of the present invention, listed in the following Table 1, were then employed in the assay, for which purpose they were prepared as a […] solution in DMSO, then diluted to 30 μM with 50 mM sodium acetate/bovine serum albumen. This working stock was then diluted three-fold into the protease reaction medium, for a final concentration of 10 μM inhibitor and 4% DMSO.
Regarding `CC(C)(C)OC(=O)N[C@@H](Cc1ccccc1)[C@H](O)CNC[C@@H](O)[C@H](Cc1ccccc1)NC(=O)C1NC(=O)CC1(C)C` (single isomer, unassigned) [Compound 266, [1S-[1R*,2S*(2S*,3R*)]]-[3-[[3-[[(3,3-Dimethyl-5-oxo-2-pyrrolidinyl)carbonyl]amino]-2-hydroxy-4-phenylbutyl]amino]-2-hydroxy-1-(phenylmethyl)propyl]carbamic acid, 1,1-dimethylethyl ester], the “HIV Protease % Inhibition at 10 μM” value was found to be 69%.

In the case of `CC(C)(C)OC(=O)N[C@@H](Cc1ccccc1)[C@H](O)CNC[C@@H](O)[C@H](Cc1ccccc1)NC(=O)C(C)(O)c1ccccn1` (single isomer, unassigned; isomer a) [Compound 381, [1S-[1R*,2S*(2S*, 3R*)]]-[2-Hydroxy-3-[[2-hydroxy-3-[[2-hydroxy-1-oxo-2-(2-pyridinyl)propyl]amino]-4-phenylbutyl]amino]-1-(phenylmethyl)propyl]carbamic acid, 1.1-dimethylethyl ester, isomer A], the “HIV Protease % Inhibition at 10 μM” value is listed as 60%.

With `COC(=O)NC(C)(C(=O)N[C@@H](Cc1ccccc1)[C@H](O)CNC[C@@H](O)[C@H](Cc1ccccc1)NC(=O)OC(C)(C)C)C(C)(C)C` (single isomer, unassigned; isomer a) [Compound 373], the “HIV Protease % Inhibition at 10 μM” value amounted to 85%.

With `CC(C)(C)OC(=O)N[C@@H](Cc1ccccc1)[C@H](O)CNC[C@@H](O)[C@H](Cc1ccccc1)NC(=O)C(CCO)C(C)(C)C` (single isomer, unassigned; isomer b) [Compound 313, [1S-[1R*, 2S* (2S*, 3R*)][-[3-[[3-[[2-(1,1-Dimethylethyl)-4-hydroxy-1-oxobutyl]amino]-2-hydroxy-4-phenylbutyl]amino]-2-hydroxy-1-(phenylmethyl)propyl]carbamic acid, 1,1-dimethylethyl ester, isomer B], the “HIV Protease % Inhibition at 10 μM” value was determined as 65%.

Take `CC(C)(C)OC(=O)N[C@@H](Cc1ccccc1)[C@H](O)CNC[C@@H](O)[C@H](Cc1ccccc1)NC(=O)C(O)C(F)(F)F` (single isomer, unassigned; isomer b) [Compound 272, [1S-[1R*,2S*(2S*,3R*)]]-[2-Hydroxy-1-(phenylmethyl)-3-[[2-hydroxy-4-phenyl-3-[(3.3,3-trifluoro-2-hydroxy-1-oxopropyl)amino]butyl]amino]propyl]carbamic acid,1,1-dimethylethyl ester (isomer B)]: the “HIV Protease % Inhibition at 10 μM” value is reported as 87%.

In the case of `CNC(=O)C(O)(C(=O)N[C@@H](Cc1ccccc1)[C@H](O)CNC[C@@H](O)[C@H](Cc1ccccc1)NC(=O)OC(C)(C)C)C(C)(C)C` (single isomer, unassigned; isomer b) [Compound 385, [1S-[1R*,2S*(2S*, 3R*)]]-[3-[[3-[[2-Hydroxy-3,3-dimethyl-2-[(methylamino)carbonyl]-1-oxobutyl]amino]-2-hydroxy-4-phenylbutyl]amino]-2-hydroxy-1-(phenylmethyl)propyl]carbamic acid, 1,1-dimethylethyl ester, isomer B], the “HIV Protease % Inhibition at 10 μM” value was found to be 99%.

For `CC(C)(C)OC(=O)N[C@@H](Cc1ccccc1)[C@H](O)CNC[C@@H](O)[C@H](Cc1ccccc1)NC(=O)C1(O)CCCCC1(C)C` (single isomer, unassigned; isomer b) [Compound 362, [1S-[1R*,2S*(2S*,3R*)]]-[3-[[3-[[2,2-Dimethyl-1-hydroxycyclohexyl)carbonyl]amino]-2-hydroxy-4-phenylbutyl]amino]-2-hydroxy-1-(phenylmethyl) propyl]carbamic acid, 1,1-dimethylethyl ester, isomer B], the “HIV Protease % Inhibition at 10 μM” value came out at 98%.

The test is the same for the next values; noted with them: pH 5.5, 10 μM inhibitor, 4% DMSO, 450 μM substrate, pH 5.5, 30 minutes at 37° C., RP-HPLC; read-out: HIV Protease % Inhibition at 10 μM.
As usually defined, the inhibition is the relative decrease from the control value, in per cent. Turning to `CC(C)(C)CS(=O)(=O)N[C@@H](Cc1ccccc1)[C@H](O)CNC[C@@H](O)[C@H](Cc1ccccc1)NC(=O)OC(C)(C)C` [Compound 181, [1S-[1R*,2S*(2S*,3R*)]]-[3-[[3-[[(2,2-Dimethy]propyl)sulfonyl]amino]-2-hydroxy-4-phenylbutyl]amino]-2-hydroxy-1-(phenylmethyl)propyl]carbamic acid 1,1-dimethylethyl ester], the inhibition at 10 µM was 46%.

For `CC(C)(C)OC(=O)N[C@@H](Cc1ccccc1)[C@H](O)CNC[C@@H](O)[C@H](Cc1ccccc1)NC(=O)C(C)(C)CO` [Compound 279, [1S-[1R*,2S*(2S*,3R*)]]-[2-Hydroxy-3-[[2-hydroxy-3-[[2-(hydroxymethyl)-2-methyl-1-oxopropyl]amino]-4-phenylbutyl]amino]-1-(phenylmethyl)propyl]carbamic acid, 1,1-dimethylethyl ester], the inhibition at 10 µM was 54%.

In the case of `CC(C)(C)OC(=O)N[C@@H](Cc1ccccc1)[C@H](O)CNC[C@@H](O)[C@H](Cc1ccccc1)NC(=O)C(C)(C)C` [Compound 269, [1S-[1R*,2S*(2S*,3R*)]]-[3-[[3-[(2,2-Dimethyl-1-oxo-propyl)amino]-2-hydroxy-4-phenylbutyl]amino]-2-hydroxy-1-(phenylmethyl)propyl]carbamic acid, 1,1-dimethylethyl ester], the inhibition at 10 µM was 61%.

Consider `CC(C)(C)OC(=O)N[C@@H](Cc1ccccc1)C(=O)CN(Cc1ccccc1)CC(O)[C@H](Cc1ccccc1)NC(=O)OC(C)(C)C` (stereo partly drawn) [Compound 195, [1S-[1R*(3R*)]]-[3-[[3-[[(1,1-Dimethylethoxy)carbonyl]amino]-2-hydroxy-4-phenylbutyl]-(phenylmethyl)amino]-2-oxo-1-(phenylmethyl)propyl]-carbamic acid, 1,1-dimethylethyl ester], for which the inhibition at 10 µM stood at 0%.

With `CNC(=O)C(O)(C(=O)N[C@@H](Cc1ccccc1)[C@H](O)CNC[C@@H](O)[C@H](Cc1ccccc1)NC(=O)OC(C)(C)C)C(C)(C)C` (single isomer, unassigned; isomer a) [Compound 384, [1S-[1R*,2S*(2S*, 3R*)]]-[3-[[3-[[2-Hydroxy-3,3-dimethyl-2-[(methylamino)carbonyl]-1-oxobutyl]amino]-2-hydroxy-4-phenylbutyl]amino]-2-hydroxy-1-(phenylmethyl)propyl]carbamic acid, 1,1-dimethylethyl ester, isomer A], the inhibition at 10 µM came out at 99%.

As to `CC(C)(C)OC(=O)N[C@@H](Cc1ccccc1)[C@H](O)CNC[C@@H](O)[C@H](Cc1ccccc1)NC(=O)c1ccc2ccccc2n1` [Compound 65, [1S-[1R*,2S*(2S*,3R*)]]-[2-Hydroxy-3-[[2-hydroxy-4-phenyl-3-[(2-quinolinylcarbonyl)-amino]butyl]amino]-1-(phenylmethyl)propyl]carbamic acid, 1,1-dimethylethyl ester], the inhibition at 10 µM turned out to be 11%.

As for `CC(C)(C)OC(=O)N[C@@H](Cc1ccccc1)[C@H](O)CNC[C@@H](O)[C@H](Cc1ccccc1)NC(=O)C(OCc1ccccc1)C(C)(C)C` (stereo partly drawn) [Compound 106, [1S-[1R*,2S* (2S*,3R*)]]-3-[[3-[[3,3-Dimethyl-1-oxo-2-(phenylmethoxy)butyl)butyl]amino]-2-hydroxy-4-phenylbutyl]amino]-2-hydroxy-1-(phenyl-methyl)propyl]carbamic acid, 1,1-dimethylethyl ester], the inhibition at 10 µM was found to be 71%.

As for `CC(C)(C)OC(=O)NCC(O)(CNC[C@@H](O)[C@H](Cc1ccccc1)NC(=O)OC(C)(C)C)Cc1ccccc1` (stereo partly drawn) [Compound 191, [1S-(1R*,2S*)]-[3-[[3-[[(1,1-Dimethylethoxy)carbonyl]amino]-2-hydroxy-2-(phenylmethyl)propyl]amino]-2-hydroxy-1-(phenylmethyl)propyl]carbamic acid, 1,1-dimethyl-ethyl ester], the inhibition at 10 µM came out at 13%.

Take `CC(C)(C)OC(=O)N[C@@H](Cc1ccccc1)[C@H](O)CNC[C@@H](O)[C@H](Cc1ccccc1)NC(=O)[C@@H]1CCCN1C(=O)OCc1ccccc1` [Compound 102, [S-[1R*,2S*(2S*,3R*)[]-N-[[[3-[[3-[[(1,1-Dimethylethoxy)carbonyl]amino]-2-hydroxy-4-phenylbutyl]amino]-2-hydroxy-1-(phenylmethyl)-propyl]-N^2-[phenylmethoxy)carbonyl]-L-prolinamide]: the inhibition at 10 µM worked out at 47%.

As to `CO[C@H](CNC[C@@H](O)[C@H](Cc1ccccc1)NC(=O)OC(C)(C)C)[C@H](Cc1ccccc1)NC(=O)OC(C)(C)C` [Compound 142, [1S-[1R*,2S*(2S*,3R*)]]-[3-[[3-[[(1,1-Dimethylethoxy)carbonyl]amino]-2-hydroxy-4-phenylbutyl]amino]-2-methoxy-1-(phenylmethyl)propyl]carbamic acid 1,1-dimethylethyl ester], the inhibition at 10 µM was 30%.

Regarding `CC(C)(C)OC(=O)N[C@@H](Cc1ccccc1)[C@@H](O)CNCC(O)[C@@H](Cc1ccccc1)NC(=O)OC(C)(C)C` (stereo partly drawn) [Compound 27, [1S-[1R*,2R*(3S*)]]-[3-[[3-[[(1,1-Dimethylethoxy)carbonyl]amino]-2-hydroxy-4-phenylbutyl]amino]-2-hydroxy-1-(phenylmethyl)propyl]-carbamic acid 1,1-dimethylethyl ester], the inhibition at 10 µM was 19%.

The same test, now with this note: pH 5.5, read-out: HIV Protease % Inhibition at 10 μM.
As to `CN(C)C(=O)OCCOc1ccc(C[C@H](NC(=O)OC(C)(C)C)[C@H](O)CNC[C@@H](O)[C@H](Cc2ccccc2)NC(=O)OC(C)(C)C)cc1` [Compound 372, [1S-[1R*,2S*(2S*, 3R*)[[-]3-]]4-]4-[2-[[(Dimethylamino)carbonyl]oxy]ethoxyl]phenyl]-3-[[(1,1-dimethylethoxy)carbonyl]amino]-2-hydroxybutyl]amino]-2-hydroxy-1-(phenylmethyl) propyl]carbamic acid], the inhibition at 10 µM stood at 98%.
